Data set [1] in a line: Viability assay against CHO cells (MTT colorimetric assay). It is filed as cell-based, Chinese hamster. To be noted: Chinese hamster, CHO cells, 72 h, replicates n = 1, 2, 3, read-out: % viable cells. As for the experimental part: (§1) (f) Cell culture: Cells were cultured in Minimum Essential Medium Eagle—Alpha Modification (α-MEM) or […] Dulbecco's Modified Eagle Medium (DMEM), purchased from Gibco. […] All cell culture plastic ware was obtained from Coming or Falcon. Cells were cultured at 37° C. in a humidified chamber with 5% CO2. When used in cell culture, DMSO was purified by filtration through a […] filter. All experiments were carried out in a laminar flow culture cabinet, unless otherwise noted.
(§2) Immortalized CHO cells had been stored in liquid nitrogen. To revive cells, a 1-mL tube of the frozen cells in medium containing 10% DMSO was warmed in a 30° C. water bath and diluted with 9 mL of fresh media. Media contained 10% FBS and 100 U/mL penicillin and […] streptomycin, unless otherwise indicated. The cells were incubated in a T-25 flask at 37° C. at 5% CO2. After 24 hours, the medium was aspirated and replaced with fresh medium. When cells reached a level of 90-100% confluence, they were sub-cultured. […] Once the cells were detached from the tissue culture flask, 3-5 mL media was added to quench the trypsin and the mixture was transferred to a 10 mL centrifuge tube. The mixture was centrifuged for 5 min at […], and the supernatant was discarded. The cells were suspended in fresh medium, diluted as required, and transferred to a new culture flask.
(§3) To assay cell viability, a nearly confluent tissue culture flask was trypsinized, and the cells were counted following treatment with Trypan blue, using a hemocytometer. The cells were then diluted to the appropriate stock concentrations in fresh medium and transferred in 100 μL to a 96-well plate using a multi-channel pipette. The number of cells plated varied from experiment to experiment. These were incubated at 37° C. and 5% CO2 for a 24-hour period to allow for adherence. The medium was aspirated, and fresh medium was added, which contained the desired additives in DMSO. The cells were then re-incubated for 72 h. At the completion of the experiment, a 100 μL aliquot of 25 mg/mL MTT in phosphate-buffered saline (PBS) was added to each well. The plate was incubated three hours further to allow for the formation of the formazan product in viable cells. The media was carefully aspirated, and the purple product was solubilized in DMSO. […] Data was processed in Microsoft Excel and GraphPad Prism. Experiments were performed in triplicates unless otherwise noted, and the error bars were calculated as the standard error of the mean.
(§4) Each cell line was plated in a 96-well plate, with 100 μL of the stock solution per well (5000 cells per well) and incubated for 24 hours. […] The cells were incubated for 72 hours, at which point viability was assessed as described.

In a further data set the test system is CHO cells. The data set is described as above. The data set is classed as cell-based, Chinese hamster. To be noted: 72 h, replicates n = 1, 2, 3, listed as MeOCOHN-Pro-amanitin (32). As for the experimental part:
as §1, §2, §3, §4

The structures appear in SMILES notation. Several values for one entry are separate records, joined by “and”; a condition that tells them apart may be missing. Identical values can stand only once. Starred links: 1 amine or outer side, 2 acyl side, 3 side chain; linkers in the order of their positions; H or OH if unused. Positions of bridges follow the written chain, without caps; N, C: chain ends. Non-standard residues stand in square brackets, D forms with d. Residues, ends and D or L forms follow the SMILES beside them. Trp(2-yl) = O=C([C@H](Cc1c([*:3])[nH]c2ccccc12)N[*:1])[*:2]; Ile(4R-OH,5-OH) = C[C@H]([C@H](N)C(=O)O)[C@@H](O)CO; X5 = COC(=O)N[C@@H]1C[C@@H](C(=O)[*:2])N([*:1])C1

Results on one compound are retold here after patent publication US20240082416A1, “AMATOXIN ANALOGS AND USES THEREOF” (THE UNIVERSITY OF BRITISH COLUMBIA, priority 2020, published 2024).

With `CC[C@H](C)[C@@H]1NC(=O)CNC(=O)[C@@H]2Cc3c([nH]c4ccccc34)SC[C@H](NC(=O)CNC1=O)C(=O)N[C@@H](CC(N)=O)C(=O)N1C[C@H](NC(=O)OC)C[C@H]1C(=O)N[C@@H]([C@@H](C)[C@@H](O)CO)C(=O)N2` [Compound 32, MeOCONH-Pro-amanitin] (cyclo(CN[X5][Ile(4R-OH,5-OH)][Trp(2-yl)]GIG); thioether 1-5), the viability at 72 h, 1e-05 M in data set [1] (1e-005 M) worked out at 86%. Further, the viability at 72 h, 1.25e-06 M in data set [1] (1.25e-006 M) was 89%. Moreover, the viability at 72 h, 1.56e-07 M in data set [1] (1.56e-007 M) was found to be 88%. Moreover, the viability at 72 h, 2e-05 M in data set [1] (2e-005 M) amounted to 99%. In addition, the viability at 72 h, 2.5e-06 M in data set [1] (2.5e-006 M) came to 88%. In data set [1] (3.125e-007 M), the viability at 72 h, 3.125e-07 M came to 89%. In addition, the viability at 72 h, 5e-06 M in data set [1] (5e-006 M) was 92%. In addition, the viability at 72 h, 6.25e-07 M in data set [1] (6.25e-007 M) amounted to 91%. Also, in data set [1] (7.8e-008 M), the viability at 72 h, 7.8e-08 M was 88%. Besides, the “% viable cells” value was 96% with CHO cells (1e-005 M); 93% in the data set on CHO cells (1.25e-006 M); 87% and 96% in the data set with CHO cells (1.56e-007 M); 103% and 102% in the data set on CHO cells (2e-005 M); 87% and 94% with CHO cells (3.125e-007 M); 87% with CHO cells (5e-006 M). The “% viable cells” value with CHO cells (6.25e-007 M) came to 98%; in the data set with CHO cells (7.8e-008 M), 97%.
